Experimental data from patent US11897862B2 (Gilead Sciences, Inc., priority 2022, dated 2024).

What was measured:
Format in all cases: cell-based
IKZF1 = biological target: T1, IKZF1 (Homo sapiens, UniProt Q13422+Q96SW2); assay: HEK293 HiBiT in vitro degradation of IKZF1; conditions: for DC50: HEK293 HiBiT, 18-24 hr incubation, normalized to DMSO control, read-out: IKZF1 EC50; for Dmax: HEK293, HEK293 HiBiT, maximum degradation at the highest concentration tested
T1 construct: expressed in transfected cells
Outline: (§1)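 Flp-In T-REx HEK293 pools stably expressing C-terminal HiBiT-tagged IKZF1, IKZF2 or SALL4 (single-copy, Tet-On), induced overnight with […] doxycycline. Cells exposed to serially diluted compounds for 18-24 hr at 37° C. Nano-Glo lytic luminescence gave EC50 and Dmax.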

SALL4 = biological target: T2, SALL4 (Homo sapiens, UniProt Q96SW2+Q9UJQ4); assay: HEK293 HiBiT in vitro degradation of SALL4; conditions: 18-24 hr incubation, normalized to DMSO control, read-out: SALL4 EC50
T2 construct: expressed in transfected cells
Description: In vitro degradation of IKZF1, IKZF2, and SALL4 was measured using HiBiT protein tagging and detection technology (Promega).
HiBit technology was used to develop the quantitative assays to measure the cellular IKZFs level by tagging an 11 amino acid HiBit peptides […] to the protein of interest. Reporter plasmids were generated by fusing a linker sequence ([…]) followed by the HiBit tag at the C-terminus of IKZF1, IKZF2, and SALL4. The fusion fragments were subsequently cloned into pcDNA5 pcDNA™5/FRT/TO plasmids (Thermo Fisher, cat #V652020) downstream of the tetracycline operator. The resulting plasmids were co-transfected with pOG44 Flp-Recombinase Expression Vector (Thermo Fisher, cat #V600520) into Flp-In™ T-REx HEK293 line (Thermo Fisher, cat #R78077) and a stable cell pool was selected by adding 100 µg/ml of Hygromycin (Thermo Fisher, cat #10687010). The reporter cell enabled Tet-On inducible reporter expression from a single copy of the integrated gene.
On Day 1, Cells were grown to ˜80% confluency in tissue culture medium (DMEM Glutamax (Gibco10569), 10% Tet free FBS (Takara 631106), and PenStrep Glutamin (Gibco 10378)) in tissue culture flasks. Doxycycline was then added to a final concentration of […] to induce reporter expression at 37° C. overnight.
On Day 2, 125 nL of serially-diluted solution of testing compounds were dispensed into 384-well white solid assay plates via ECHO acoustic liquid handler. Cells were lifted by 0.25% Trypsin (Gibco 25200) then pelleted by centrifugation (Beckman Avanti J-E) at 500×g for 5 min. Cell pellets were resuspended in TC medium at the concentration of 3e5/mL and 25 μL of cell suspension were added into each well of compound-spotted plates. The plates were returned to a 37° C. incubator overnight (18-24 hr).
On Day 3, assay plates were removed from the tissue culture incubator and 25 μL of Nano-Glo lytic detection system (Promega, cat #N3030) was added to each well. Plates were incubated at r.t. for 3 min with shaking, and luminescence was read using an Envision reader (Perkin Elmer).
To assess the IKZF1, IKZF2, and SALL4 degrader potential of exemplified compounds of this disclosure and certain Reference Compounds EC50 and Dmax values were determined for the compounds of Examples 1 to 383 and Reference Compounds A-1, B-1, B-2, B-3, B-4, and C-1 in the HiBiT assays. Asterisks (*) indicate examples for which the data shown represents an average of n≥3.

IKZF2 [1] = biological target: T3, IKZF2 (Homo sapiens, UniProt Q96SW2+Q9UKS7); assay: HEK293 HiBiT in vitro degradation of IKZF2; design: expressed in transfected cells; conditions: for DC50 / IKZF2 Dmax: HEK293 HiBiT; for DC50: 18-24 hr incubation, normalized to DMSO control, read-out: IKZF2 EC50; for IKZF2 Dmax / Dmax: maximum degradation at the highest concentration tested; for Dmax: HEK293, HEK293 HiBiT
Outline: as §1
Target sequence in this assay (Q9UKS7 1-500 isoform Q9UKS7-2): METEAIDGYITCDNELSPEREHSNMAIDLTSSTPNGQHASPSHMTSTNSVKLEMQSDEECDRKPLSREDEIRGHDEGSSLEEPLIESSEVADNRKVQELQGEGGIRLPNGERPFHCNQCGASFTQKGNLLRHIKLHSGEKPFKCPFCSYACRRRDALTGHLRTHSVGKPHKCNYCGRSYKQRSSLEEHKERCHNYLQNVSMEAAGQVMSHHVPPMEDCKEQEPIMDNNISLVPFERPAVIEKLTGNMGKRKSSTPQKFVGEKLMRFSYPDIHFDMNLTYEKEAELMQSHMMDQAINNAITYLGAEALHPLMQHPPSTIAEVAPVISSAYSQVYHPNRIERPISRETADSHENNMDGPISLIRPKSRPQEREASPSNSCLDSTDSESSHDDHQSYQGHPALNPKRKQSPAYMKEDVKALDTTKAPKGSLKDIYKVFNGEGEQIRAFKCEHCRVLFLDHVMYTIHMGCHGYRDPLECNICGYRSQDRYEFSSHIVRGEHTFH
Target sequence in this assay (Q96SW2 whole entry): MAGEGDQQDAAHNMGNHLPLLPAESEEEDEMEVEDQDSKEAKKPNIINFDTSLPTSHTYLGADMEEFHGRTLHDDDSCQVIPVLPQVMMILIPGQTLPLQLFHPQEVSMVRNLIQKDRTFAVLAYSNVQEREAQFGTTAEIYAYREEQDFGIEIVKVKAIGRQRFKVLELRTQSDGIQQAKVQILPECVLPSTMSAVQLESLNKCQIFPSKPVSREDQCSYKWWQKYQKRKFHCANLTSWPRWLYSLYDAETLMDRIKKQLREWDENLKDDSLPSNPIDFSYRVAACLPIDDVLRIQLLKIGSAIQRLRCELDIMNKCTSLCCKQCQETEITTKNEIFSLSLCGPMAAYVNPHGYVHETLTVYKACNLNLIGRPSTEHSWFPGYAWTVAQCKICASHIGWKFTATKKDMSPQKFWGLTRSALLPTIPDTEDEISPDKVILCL
Target sequence in this assay (Q16531 whole entry partner): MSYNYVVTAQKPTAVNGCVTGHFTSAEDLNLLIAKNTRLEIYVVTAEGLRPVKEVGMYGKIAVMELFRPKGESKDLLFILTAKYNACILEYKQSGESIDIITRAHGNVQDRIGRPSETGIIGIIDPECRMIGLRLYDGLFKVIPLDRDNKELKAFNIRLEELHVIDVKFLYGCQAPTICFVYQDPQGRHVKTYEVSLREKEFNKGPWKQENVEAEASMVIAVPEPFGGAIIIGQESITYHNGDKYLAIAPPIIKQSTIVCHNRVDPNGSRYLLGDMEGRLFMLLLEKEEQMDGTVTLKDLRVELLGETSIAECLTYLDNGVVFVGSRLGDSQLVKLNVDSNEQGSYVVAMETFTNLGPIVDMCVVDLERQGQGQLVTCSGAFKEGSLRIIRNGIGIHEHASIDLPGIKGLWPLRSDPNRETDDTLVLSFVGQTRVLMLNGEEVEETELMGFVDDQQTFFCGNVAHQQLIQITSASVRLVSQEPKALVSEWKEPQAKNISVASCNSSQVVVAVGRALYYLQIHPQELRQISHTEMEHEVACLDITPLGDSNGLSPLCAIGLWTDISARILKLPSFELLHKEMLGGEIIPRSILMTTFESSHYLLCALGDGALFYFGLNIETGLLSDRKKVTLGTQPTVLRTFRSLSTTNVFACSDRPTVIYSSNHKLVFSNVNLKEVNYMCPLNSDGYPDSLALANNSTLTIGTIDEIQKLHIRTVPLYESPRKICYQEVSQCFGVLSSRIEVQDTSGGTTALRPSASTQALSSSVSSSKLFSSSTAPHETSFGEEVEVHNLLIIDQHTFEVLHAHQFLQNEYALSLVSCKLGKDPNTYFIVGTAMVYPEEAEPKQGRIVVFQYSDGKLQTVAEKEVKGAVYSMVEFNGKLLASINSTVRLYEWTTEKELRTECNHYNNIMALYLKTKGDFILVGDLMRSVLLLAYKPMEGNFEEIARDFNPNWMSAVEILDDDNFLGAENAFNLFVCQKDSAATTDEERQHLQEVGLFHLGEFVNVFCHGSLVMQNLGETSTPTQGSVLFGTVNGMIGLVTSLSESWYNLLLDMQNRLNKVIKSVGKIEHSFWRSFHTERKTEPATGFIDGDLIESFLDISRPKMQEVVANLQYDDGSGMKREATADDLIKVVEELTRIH

IKZF2 [2] = biological target: T3, IKZF2; assay: Human whole blood IKZF2 degradation (flow cytometry, CD4/CD25/Foxp3+ Treg cells); design: endogenous in cells; conditions: 24 hrs incubation, IKZF2 MFI in CD4/CD25/Foxp3+ Treg cells, flow cytometry; for DC50: read-out: IKZF2 EC50
Description: In vitro IKZF2 potency was assessed in human whole blood using a fluorescence activated cell sorting assay. 50 μL of freshly collected blood from healthy human volunteers was incubated with Immunocult CD3/CD28 activator (Stemcell Technologies) and solution of testing compounds (serially-diluted) for 24 hrs hours at 37° C. in 384 well plates. The treated red blood cells were removed by adding lysis buffer (BD cat #558049) then the cells were fixed, permeabilized, and stained with anti-CD4 (BD cat #564419), anti-Foxp3 (Invitrogen cat #48-4777-42), anti-IKZF1 (Cell Signaling Tech. cat #33462S), and anti-IKZF2(Cell Signaling Tech. cat #65432S) antibodies. The median fluorescent intensity (MFI) of IKZF2 signal from CD4/CD25/Foxp3+ Treg cells and MFI of IKZF1 signal from CD4+ T cells were quantified in the same samples by flow cytometry using an Attune instrument. EC50 and Dmax of each compound was determined by plotting the MFI and DMSO treated wells were used as control. Asterisks (*) indicate examples for which data represents an average of n≥3 repeat experiments.
Target sequence in this assay (Q9UKS7 whole entry): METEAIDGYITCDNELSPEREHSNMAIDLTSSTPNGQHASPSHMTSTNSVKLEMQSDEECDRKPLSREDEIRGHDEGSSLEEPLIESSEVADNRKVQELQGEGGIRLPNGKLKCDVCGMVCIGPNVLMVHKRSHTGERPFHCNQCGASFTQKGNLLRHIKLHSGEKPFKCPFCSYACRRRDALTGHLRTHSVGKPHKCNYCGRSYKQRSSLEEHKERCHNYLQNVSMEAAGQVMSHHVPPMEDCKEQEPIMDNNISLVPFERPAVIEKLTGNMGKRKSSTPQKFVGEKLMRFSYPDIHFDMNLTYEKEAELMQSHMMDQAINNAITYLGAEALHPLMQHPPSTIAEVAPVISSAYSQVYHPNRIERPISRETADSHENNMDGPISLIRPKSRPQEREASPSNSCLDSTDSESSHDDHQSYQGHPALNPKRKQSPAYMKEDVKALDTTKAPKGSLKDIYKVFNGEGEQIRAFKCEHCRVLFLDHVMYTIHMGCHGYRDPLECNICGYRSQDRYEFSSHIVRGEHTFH
Target sequence in this assay (Q96SW2 whole entry): as the sequence (Q96SW2 whole entry) above
Target sequence in this assay (Q16531 whole entry partner): as the sequence (Q16531 whole entry partner) above

T2 sequence (Q9UJQ4 whole entry): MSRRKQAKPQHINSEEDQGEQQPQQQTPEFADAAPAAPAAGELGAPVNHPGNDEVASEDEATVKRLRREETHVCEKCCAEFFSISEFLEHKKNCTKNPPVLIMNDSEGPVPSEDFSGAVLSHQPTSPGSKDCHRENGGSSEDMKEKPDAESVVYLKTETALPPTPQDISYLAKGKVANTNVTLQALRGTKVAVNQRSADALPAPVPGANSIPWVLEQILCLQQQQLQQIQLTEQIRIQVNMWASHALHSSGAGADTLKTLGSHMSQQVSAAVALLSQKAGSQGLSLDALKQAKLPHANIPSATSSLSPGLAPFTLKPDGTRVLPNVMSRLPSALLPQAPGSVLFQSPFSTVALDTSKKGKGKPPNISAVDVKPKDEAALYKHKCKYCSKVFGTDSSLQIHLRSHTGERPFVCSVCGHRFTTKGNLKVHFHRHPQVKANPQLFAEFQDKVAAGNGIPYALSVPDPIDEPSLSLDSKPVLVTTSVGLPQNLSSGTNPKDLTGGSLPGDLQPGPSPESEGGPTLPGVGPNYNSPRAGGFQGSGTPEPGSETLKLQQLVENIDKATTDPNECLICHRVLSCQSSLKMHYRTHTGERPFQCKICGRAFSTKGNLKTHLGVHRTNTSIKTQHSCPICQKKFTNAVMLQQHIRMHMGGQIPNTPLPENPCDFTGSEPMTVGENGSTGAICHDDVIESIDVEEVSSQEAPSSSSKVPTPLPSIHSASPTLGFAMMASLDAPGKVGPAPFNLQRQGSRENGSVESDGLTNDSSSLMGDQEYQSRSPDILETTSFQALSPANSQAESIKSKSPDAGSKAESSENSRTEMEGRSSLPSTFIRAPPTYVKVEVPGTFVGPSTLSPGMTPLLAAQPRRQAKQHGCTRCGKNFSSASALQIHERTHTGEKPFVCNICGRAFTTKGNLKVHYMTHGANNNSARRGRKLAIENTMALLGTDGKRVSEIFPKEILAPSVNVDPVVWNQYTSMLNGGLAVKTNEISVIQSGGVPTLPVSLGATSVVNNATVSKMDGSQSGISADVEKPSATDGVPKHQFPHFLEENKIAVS
T2 sequence (Q96SW2 whole entry): as the sequence (Q96SW2 whole entry) above
T2 sequence (Q16531 whole entry partner): as the sequence (Q16531 whole entry partner) above
T1 sequence (Q13422 whole entry): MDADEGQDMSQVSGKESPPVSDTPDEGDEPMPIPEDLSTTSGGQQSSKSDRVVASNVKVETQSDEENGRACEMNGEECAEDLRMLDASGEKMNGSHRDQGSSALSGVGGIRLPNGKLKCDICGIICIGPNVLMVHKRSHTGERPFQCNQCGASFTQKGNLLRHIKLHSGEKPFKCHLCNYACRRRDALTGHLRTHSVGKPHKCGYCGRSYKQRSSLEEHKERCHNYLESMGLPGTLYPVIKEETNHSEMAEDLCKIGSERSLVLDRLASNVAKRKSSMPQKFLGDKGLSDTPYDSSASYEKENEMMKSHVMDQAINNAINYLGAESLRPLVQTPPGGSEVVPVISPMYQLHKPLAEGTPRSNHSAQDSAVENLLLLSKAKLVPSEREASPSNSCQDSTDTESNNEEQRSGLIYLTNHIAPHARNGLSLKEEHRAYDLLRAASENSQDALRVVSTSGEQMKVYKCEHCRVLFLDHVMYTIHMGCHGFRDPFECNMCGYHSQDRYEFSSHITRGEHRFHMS
T1 sequence (Q96SW2 whole entry): as the sequence (Q96SW2 whole entry) above
T1 sequence (Q16531 whole entry partner): as the sequence (Q16531 whole entry partner) above

| SMILES | DC50 (IKZF1) | DC50 (SALL4) | DC50 (IKZF2 [1]) | IKZF2 Dmax (IKZF2 [1]) | Dmax (IKZF2 [1]) | Dmax (IKZF1) | Dmax (IKZF2 [2]) | DC50 (IKZF2 [2]) |
| --- | --- | --- | --- | --- | --- | --- | --- | --- |
| COCC1CCC(N[C@H]2CCCO[C@@H]2Cc2ccc3c(c2F)CN(C2CCC(=O)NC2=O)C3=O)CC1 (single isomer, unassigned) [Example 265] | > 1000 nM | > 10000 nM | 3 nM | 96% | – | – | – | – |
| COC1(C)CCC(N[C@H]2CCCO[C@@H]2Cc2ccc3c(c2F)CN(C2CCC(=O)NC2=O)C3=O)CC1 (single isomer, unassigned) [Example 316] | > 1000 nM | > 10000 nM | 7 nM | – | 95% | – | – | – |
| CC1CC[C@H](NC2CCC(F)(F)CC2)[C@@H](Cc2ccc3c(c2)CN(C2CCC(=O)NC2=O)C3=O)C1 (single isomer, unassigned) [Example 324] | 16 nM | > 10000 nM | 3 nM | – | 95% | 71% | – | – |
| O=C1CCC(N2Cc3c(ccc(C[C@H]4OCCC[C@@H]4NC4CCC(OC(F)F)CC4)c3F)C2=O)C(=O)N1 (single isomer, unassigned) [Example 327] | 535 nM | > 10000 nM | 3 nM | 96% | – | – | – | – |
| O=C1CC[C@H](N2Cc3c(ccc(C[C@H]4OCCC[C@@H]4N[C@H]4CC[C@H](C(F)F)CC4)c3F)C2=O)C(=O)N1 (single isomer, unassigned) [Example 330] | 37 nM | > 10000 nM | 3 nM | – | 94% | 28% | – | – |
| O=C1CC[C@@H](N2Cc3c(ccc(C[C@H]4OCCC[C@@H]4N[C@H]4CC[C@H](C(F)F)CC4)c3F)C2=O)C(=O)N1 (single isomer, unassigned) [Example 331] | 448 nM | > 10000 nM | 4 nM | – | 96% | – | – | – |
| CN(C1CCC(F)(F)CC1)[C@H]1CCCC[C@@H]1Cc1ccc2c(c1F)CN(C1CCC(=O)NC1=O)C2=O (some centres unmarked) [Example 124] | > 10000 nM | – | 16 nM | – | 94% | – | 91% | 23 nM |
| O=C1CCC(N2Cc3cc(C[C@H]4CCCC[C@@H]4NC4CC5(CCOCC5)C4)ccc3C2=O)C(=O)N1 (some centres unmarked) [Example 125] | 126 nM | – | 17 nM | – | 96% | 26% | 91% | 3 nM |
| CC(C)CCN[C@H]1CCCC[C@@H]1Cc1ccc2c(c1)CN(C1CCC(=O)NC1=O)C2=O (some centres unmarked) [Example 129] | 93 nM | – | 13 nM | – | 95% | 25% | 91% | 9 nM |
| CC(N[C@H]1CCCC[C@@H]1Cc1ccc2c(c1)CN(C1CCC(=O)NC1=O)C2=O)C12CC(C1)C2 (some centres unmarked) [Example 138] | > 1000 nM | – | 4 nM | – | 98% | – | 96% | 3 nM |
| O=C1CCC(N2Cc3cc(C[C@H]4CCCC[C@@H]4NC4CC5(CCC(F)(F)CC5)C4)ccc3C2=O)C(=O)N1 (some centres unmarked) [Example 142] | 74 nM | – | 5 nM | – | 95% | 33% | 94% | 5 nM |
| O=C1CCC(N2Cc3c(ccc(C[C@H]4OCCC[C@@H]4NC4CCCC4)c3F)C2=O)C(=O)N1 (some centres unmarked) [Example 148] | > 1000 nM | – | 7 nM | – | 94% | – | 92% | 6 nM |
